Four compounds from patent US20110306638A1, “BENZISOXAZOLE PIPERIDINYL DERIVATIVES, PHARMACEUTICAL COMPOSITIONS COMPRISING THE DERIVATIVES AND THEIR USE” (NHWA PHARMA. CORPORATION, priority 2008, published 2011) can be followed below.

The target of one experiment is T1, 5-HT2A receptor (Homo sapiens, UniProt P28223).
T1 construct: expressed in transfected cells; host or cells: HEK293
In words: In-vitro competitive binding to 5-HT2A receptor, [3H]-Ketanserin, transformed HEK293 cells. The following applies: for IC50 / Ki: affinity to 5-HT2A receptor, concentration gradient test; for inhibitory activity on 5-HT2A (in words): compared with Aripiprazole; for inhibition at 10 µM: read-out: 5-HT2A [3H]-Ketanserin inhibition percentage. The method, then: All test samples were dissolved in DMSO at a concentration of 0.01 mol/L, and then diluted with deionized water to 100 umol/L.
HEK293 cells were transformed with plasmid carriers containing the gene coding for 5-HT2A receptor protein by using calcium phosphate transformation. Stable cell strains which could stably express 5-HT2A receptor protein were obtained from the transformed cells by cultivating in a culture media containing G418, selecting monoclones of the cell and performing radioactive ligand binding assay.
Beckman LS 6500 Scintillation Counter.
HEK-293 cells were infected with recombined viruses containing various genes described above. […] Cells were centrifuged at 1000 rpm for 5 min Culture media was discarded, and cell bodies were collected and stored at −20° C. in a freezer. The cell bodies were resuspended with Tris-HCl reaction buffer during assay.
After incubation at 37° C. for 15 min, the reaction mixture was immediately transferred into ice bath to terminate the reaction; the reaction mixture was quickly filtered through GF/C glass cellulose filter on a Millipore cell sample collector, and was then washed with eluting solution (50 mM Tris-HCl, PH 7.7, 3 ml×3) and dried in a microwave for 8-9 min. The filter was transferred into a 0.5 ml centrifuge tube, and 500 μl lipid soluble scintillation fluid was added. The centrifuge tube was allowed to stand in darkness for more than 30 min. Radioactivity was determined by counting Inhibition percentage of each compound on isotope ligand binding was calculated according to the following equation:
inhibition percentage(I %)=cpm of overall binding tube−cpm of compound/cpm of overall binding tube−cpm of nonspecific binding tube×100%.
Each compound was tested in two duplicate test tubes and two separate tests were performed.

A further experiment has as its system mice. In words: Sedative effects in mice (spontaneous activities). In kind it is in vivo. More on the design: unit not given here. The note with it: single dose 20 mg/kg. The protocol: Spontaneous activities of the mice were recorded by alternating current tube, Sedative effects were tested after single dose (20 mg/kg).
Experiment [1] concerns the target T2, 5-HT reuptake by brain synapses (Rattus norvegicus, UniProt P31652).
T2 construct: forehead cortex was obtained for [^3H]5-HT, [^3H]NA reuptake test; from tissue; host or cells: rat (SD) forebrain cortex synaptosomes
Briefly: [3H]5-HT reuptake test in rat brain synapses. In kind it is biochemical. The note with it: for inhibitory activity on 5-HT reuptake (in words): at 10 μmol/L, compared with Dutoxetine; for inhibition at 10 µM: final concentration 10 umol/L, rat brain synapses, read-out: 5-HTU [3H] 5-HT reuptake inhibition percentage Mean. The method, then: The method was as follows:
Male SD rats were killed by cervical dislocation, heads were immediately cut and brains were obtained and put on ice, related brain tissues were dissected (forehead cortex was obtained for [^3H]5-HT, [^3H]NA reuptake test, corpus striatum was obtained for [^3H]DA reuptake).
After the sample was weighed, 10 folds (V/W) ice cold 0.32 mol/L sucrose solution was added.
According to [a. […] 5-HT was added and after incubation in water bath at 37° C. for 10 min, the reaction mixture was immediately taken out of the water bath and 2 ml ice cold 150 mmol/L Tris-HCl was added to terminate the reaction. The sample was collected on a round glass fiber filter by vacuum filtration and washed three times with 3 ml ice cold Tris-HCl buffer. The filter membrane was removed, dried in a far-infrared oven for 15 min, then transferred into a EP tube, in which 1.5 ml scintillation fluid was added, left overnight and detected by a scintillation counter. The test sample was not added into solvent controlled overall binding tube or non-specific binding tube. 50 μl solvent was added into the overall binding tube, and in [^3H] 5-HT reuptake test, 600 μmol/L cocaine was added into the non-specific binding tube.

The subject of experiment [2] is Kunming mice. Briefly: Acetic acid-induced abdominal writhing test in mice. In kind it is in vivo. The protocol: Kunming mice, SPF KM mice purchased from […] SLAC LABORATORY ANIMAL CO. LTD and kept in normal environment.
The compounds were dissolved in water for injection at a concentration of 4 mg/ml, 2 mg/ml and 1 mg/ml and were given intragastrically to animals.
(§1) Three different doses (10, 20, and 40 mg/kg) were administered to the test groups.
Aspirin was used as a positive control and acetic acid writhing test was used.
30 mice (half male and half female) weighing 18-23 g were divided into five groups, including negative control group, positive control group, low dose group, medium dose group and high dose group:
Mice in test group received test drug (10 mg/kg, 20 mg/kg, 40 mg/kg) via intragastric administration. Negative control group received physiological saline (20 ml/kg) via oral administration. Positive control group received aspirin (200 mg/kg) via oral administration. One hour later, each group received 0.7% acetic acid 10 ml/kg intraperitoneally. Five minutes later, the number of writhes was counted within the subsequent 15 min period; inhibition percentage of writhing response in each test group was calculated by the following equation: […]

Experiment [3] deals with Kunming mice. In words: Hot-plate test in mice. In kind it is in vivo. The note with it: 1 h post dose. The protocol: Kunming mice, SPF KM mice were purchased from […] SLAC LABORATORY ANIMAL CO. LTD and kept in normal environment.
The compounds were dissolved in water for injection at a concentration of 4 mg/ml, 2 mg/ml and 1 mg/ml and were given subcutaneously to animals.
as §1
Morphine was used as a positive control and hot plate test was used.
30-40 mice (half male and half female) weighed from 18 to 23 gram were used. First, each mouse was placed on a hot plat at 55° C. to determine basic pain threshold for 2-3 times. Those animals with basic pain threshold of 5-30 s were qualified, unqualified mice were not used. 30 qualified mice were divided into five groups, including negative control group, positive control group, low-dose group, medium-dose group and high-dose group:
Mice in test groups received test sample solution (10 mg/kg, 20 mg/kg, 40 mg/kg) via subcutaneous injection in the neck. Positive control group received subcutaneous injection of morphine (2 mg/kg). One hour later, pain threshold values were determined for mice in each group as post-drug pain threshold. Percentage increase in pain threshold was calculated according to the following equation: […]
(In general: In hot-plate and tail-flick tests a longer latency is read as antinociception.)

The target of experiment [4] is opioid receptor subtype κ (Homo sapiens, UniProt P41145). Briefly: Competitive binding to opioid receptor subtype κ, [3H]Diprenorphine. The following applies: tested concentration 10^−5 mol/L; read-out: κ inhibition percentage of competitive binding. The protocol: (§2) The respective test compounds were added to the sample tube (final concentration of 10^−5M), incubated at 37° C. for 30 min and placed in ice bath to terminate the reaction. The reaction mixture was filtered through GF/C (Whatman) glass fiber filter by vacuum filtration on a Millipore sample collector. The filter was washed three times with 50 mM Tris-HCl (pH7.4), each with 4 ml; dried and transferred into a 0.5 ml Eppendorf tube, in which 0.5 ml lipophilic scintillation fluid was added. Radioactivity was detected by a LS6500 scintillation counter. Each concentration had three duplicate test tubes and each separate test was repeated 3 to 4 times.
(§3) Specific binding CMP value for each sample tube=overall binding CPM value for each sample tube−CPM value of non-specific binding tube.
(§4) [Inhibition percentage of competitive binding between the test compound and different opioid receptor subtypes (%)=(100%−specific binding (CPM value)of sample tube/specific binding(CPM value)of solvent group×100%)]
(§5) Average was taken for each test drug from three duplicate tubes; each test was repeated two or more times.

The target of experiment [5] is opioid receptor subtype δ (Homo sapiens, UniProt P41143). In words: Competitive binding to opioid receptor subtype δ, [3H]Diprenorphine. The note with it: tested concentration 10^−5 mol/L; read-out: δ inhibition percentage of competitive binding. The protocol:
as §2, §3, §4
Average was taken for each test drug from three duplicate tubes; each test was repeated two or more times. Data were presented as mean±SE and statistical comparison was made by ANOVA.

Experiment [6] concerns the target opioid receptor subtype μ (Homo sapiens, UniProt P35372). In words: Competitive binding to opioid receptor subtype μ, [3H]Diprenorphine. The note with it: tested concentration 10^−5 mol/L; read-out: μ inhibition percentage of competitive binding. The method, then: as §2, §3, §4, §5
The mark [7] stands for this setting: 10 mg/kg intragastric administration.
[8] abbreviates: 20 mg/kg intragastric administration.
[9] abbreviates: 40 mg/kg intragastric administration.

Read-outs that look alike come from different tables or passages of the source. Marks after values point to notes of the source that are not given here.

What is called IC50 is the concentration needed to halve the response being measured. By Ki is commonly meant the equilibrium dissociation constant of an inhibitor or competing ligand from its target. The term inhibition denotes the change of the read-out against control, counted positive when it falls. On to `Fc1ccc2c(C3CCN(CCCCn4ccc5ccc(F)cc54)CC3)noc2c1` [II-8, 6-fluoro-3-(1-(4-(6-fluoro-1H-indol-1-yl)butyl)piperidin-4-yl)benzo[d]isoxazole], for which the IC50 on 5-HT2A receptor was 5.33 nM. Further, the inhibitory constant (Ki) at 5-HT2A receptor was 2.79 nM. In addition, the “inhibitory activity on 5-HT2A (in words)” value at 5-HT2A receptor is on record as “potent inhibitory activities”. The inhibition at 10 µM came to 100% on 5-HT2A receptor (final concentration 10 umol/L) and 107% in experiment [1]. In the experiment with mice, the Sedative effect was 42*. Further, the “inhibitory activity on 5-HT reuptake (in words)” value in experiment [1] is on record as “potent inhibitory activities”. Also, the “Inhibition percentage of writhing response” value (“Inhibition percentage” below) with Kunming mice [2] (setting [7]) is given as 95.88* %; with Kunming mice [2] (setting [8]), 96.46** %; with Kunming mice [2] (setting [9]) it was 100.0** %. In addition, the “Percentage increase in pain threshold” value in the experiment with Kunming mice [3] (10 mg/kg S.c.) is given as 97.49%; in the experiment with Kunming mice [3] (20 mg/kg S.c.), 160.50** %; in the experiment with Kunming mice [3] (40 mg/kg S.c.) it was 172.81* %.

With `N#Cc1ccc2cnn(CCCCN3CCC(c4noc5cc(F)ccc45)CC3)c2c1` [II-14, 1-(4-(4-(6-fluorobenzo[d]isoxazol-3-yl)piperidin-1-yl)butyl)-1H-indazole-6-carbonitrile], the IC50 on 5-HT2A receptor worked out at 3.09 nM. Further, the Ki on 5-HT2A receptor was 2.06 nM. Also, the “inhibitory activity on 5-HT2A (in words)” value on 5-HT2A receptor was “potent inhibitory activities”. Besides, the inhibition at 10 µM at 5-HT2A receptor (final concentration 10 umol/L) was determined as 99.7%; in experiment [4], 7 ± 0.6%; in experiment [1] it was 88.3%; in experiment [5], 0%; in experiment [6], 41.9 ± 0.5%. Moreover, the Sedative effect in the experiment on mice is reported as 20. Also, the “inhibitory activity on 5-HT reuptake (in words)” value in experiment [1] is given as “potent inhibitory activities”. Moreover, the “Inhibition percentage” value is 77.70* % in the experiment with Kunming mice [2] (setting [7]), 69.03% in the experiment on Kunming mice [2] (setting [8]) and 85.66** % in the experiment on Kunming mice [2] (setting [9]).

On 5-HT2A receptor, `Fc1ccc2c(C3CCN(CCCCn4cnc5ccc(F)cc54)CC3)noc2c1` [III-2, 6-fluoro-3-(1-(4-(6-fluoro-1H-benzo[d]imidazol-1-yl)butyl)piperidin-4-yl)benzo[d]isoxazole] displayed an IC50 of 3.99 nM. Further, the affinity at 5-HT2A receptor, expressed as Ki, was 2.69 nM. Moreover, the inhibition at 10 µM amounted to 99.1% on 5-HT2A receptor (final concentration 10 umol/L); 44.1 ± 0.2% in experiment [4]; 86% in experiment [1]; 0% in experiment [5]; 59.3 ± 0.7% in experiment [6]. Moreover, the Sedative effect in the experiment on mice is 64**. The “Inhibition percentage” value with Kunming mice [2] (setting [7]) was 97.61* %; in the experiment with Kunming mice [2] (setting [8]) it was 100.0** %; with Kunming mice [2] (setting [9]), 100.0** %. Further, the “Percentage increase in pain threshold” value with Kunming mice [3] (10 mg/kg S.c.) was 92.55* %; in the experiment on Kunming mice [3] (20 mg/kg S.c.), 172.2* %; in the experiment on Kunming mice [3] (40 mg/kg S.c.) it was 97.22%.

`Fc1ccc2c(C3CCN(CCCOn4nnc5ccc(Cl)cc54)CC3)noc2c1` [IV-4, 3-(1-(3-(6-chloro-1H-benzo[d][1,2,3]triazol-1-yloxy)propyl)piperidin-4-yl)-6-fluorobenzo[d]isoxazole]: the inhibition at 10 µM on 5-HT2A receptor was found to be 97.4%; in experiment [4], 37.3 ± 1.7%; in experiment [5] it was 0%; in experiment [6], 34.3 ± 1.3%. In the experiment on mice, the Sedative effect was 70.8*. Moreover, the “Inhibition percentage” value in the experiment with Kunming mice [2] (setting [7]) came to 88.33%; with Kunming mice [2] (setting [8]) it was 99.44%; in the experiment on Kunming mice [2] (setting [9]), 97.78%. Also, the results for the “Percentage increase in pain threshold” value in the experiment on Kunming mice [3] (10 mg/kg S.c.), with Kunming mice [3] (20 mg/kg S.c.) and in the experiment on Kunming mice [3] (40 mg/kg S.c.) were 51.63%, 79.36* % and 89.96* %, respectively.
